Measurements published in patent publication US5459236A, “Vasoactive vasotocin derivatives” (Ferring AB, priority 1990, dated 1995).

Tests used:
[1] = test system: anaesthetised water-loaded Sprague Dawley rats; assay: Antidiuretic potency test, 4-point test against standard AVP; format: in vivo; conditions: maximal increase of urine conductivity after intravenous injection, 4-point test vs AVP
Description: (§1) Vasotocin derivatives according to the invention have been tested for potency of both blood pressure and antidiuretic activity in a so-called 4-point test, i.e. the activity of the test substances has been related to a standard preparation (AVP=argininevasopressin), and the effects of two dose levels for each substance have been analysed. In addition, three pressor-specific VT derivatives according to our previous application SE 8703855-0 have been tested for a comparison, namely 1-Hmp-2-Phe-S-Orn-VT (compound 2 in Table 1), 1-Hmp-2-Phe-S-Dab-VT (compound 3 in Table 1), and 1-Hmp-2-Phe-S-Dab(Ala)-VT (compound 5 in Table 1).
Antidiuretic potency was determined with the aid of anaesthetised water-loaded Sprague Dawley rats (200 g) (Larsson, L. E., Lindeberg, G., Melin, P. and Pliska, V., 1978, J. Mad. Chem. 21, 353). Maximal increase of urine conductivity after intravenous injections was used as effect parameter.
(§2) In these two tests, a comparison was made between the effects of the respective derivative and the effect of a standard preparation, AVP, and potency was determined with the aid of a 4-point test and is indicated in international units per micromole (IU/μmole) (Sturmer, E., in Handbook of Expermimental Pharmacology, 1966, Vol 23, pp 130-189).

[2] = test system: anaesthetised Sprague Dawley rats, previously treated with dibenamine; assay: Blood pressure (pressor) test, 4-point test against standard AVP; format: in vivo
Description: as §1
Blood pressure tests were carried out on anaesthetised Sprague Dawley rats (about 250 g), previously treated with dibenamine (Dekanski, J., 1952. Br. J. Pharmacol. 7, 567). Maximal blood pressure increase after intravenous injections of peptide was used as a measure of the effect, expressed as intensity.
In addition to potency determination based-on effect intensity, a measure of the length of the effect has been stated (index of persistence (I.P.), Pliska, V., 1966. Arzheim. Forech. 16, 886). This dimensionless factor is a measure of the effect duration of the respective analog in relation to the standard AVP.
as §2
The specificity in respect of blood pressure is indicated by the ratio of potency blood pressure/potency antidiuresis (BP/AD).

Question: `NC(=O)CC[C@@H]1NC(=O)[C@H](Cc2ccccc2)NC(=O)[C@H](Cc2ccc(O)cc2)NC(=O)[C@@H](N)CSSC[C@@H](C(=O)N2CCC[C@H]2C(=O)N[C@@H](CCCN=C(N)N)C(=O)NCC(N)=O)NC(=O)[C@H](CC(N)=O)NC1=O` [AVP, argininevasopressin] was tested. Which “ANTIDIURESIS AD potency” value [1] did it give?
Answer: 620 ± 54 IU/μmole

Question: And the “BLOOD PRESSURE BP I.P (measure of duration of effect), index of persistence” value ([2]; dimensionless, effect duration in relation to the standard AVP, intravenous)?
Answer: 1.0

Question: What about the “BLOOD PRESSURE BP potency” value ([2]; maximal blood pressure increase after intravenous injection, 4-point test vs AVP, anaesthetised rats) of the same compound?
Answer: 614 ± 25 IU/μmole

Question: And the “BP/AD (measure of specificity)” value ([2]; ratio of potency blood pressure/potency antidiuresis)?
Answer: 1.0
